Measured values reported in the NIST ThermoML archive (doi:10.1021/acs.jced.8b00452).
Several values for one entry are separate records, joined by “and”; a condition that tells them apart may be missing. Equal entries are not always repeated.

Conditions: isochoric method

C=CC(F)(F)F [1,1,1-trifluoro-2-propene]
Conditions | mass density [kg/m3]
328 K, 2263.6 kPa, Liquid | 899.4
330 K, 1111.5 kPa, Gas | 50
330 K, 3005.2 kPa, Liquid | 899.2
333 K, 4120.1 kPa, Liquid | 899
335 K, 4863.3 kPa, Liquid | 898.9
338 K, 5981.5 kPa, Liquid | 898.8
340 K, 1167.6 kPa, Gas | 49.9
340 K, 6726 kPa, Liquid | 898.7
348 K, 2175.9 kPa, Liquid | 796.5
349 K, 2433.4 kPa, Liquid | 796.4
350 K, 1222.4 kPa, Gas | 49.9
350 K, 2692.4 kPa, Liquid | 796.4
351 K, 2951.1 kPa, Liquid | 796.4
352 K, 3211.8 kPa, Liquid | 796.4
353 K, 3472 kPa, Liquid | 796.3
354 K, 3732.3 kPa, Liquid | 796.3
355 K, 2036.4 kPa, Gas | 99.8
355 K, 3993.5 kPa, Liquid | 796.3
356 K, 4255.7 kPa, Liquid | 796.3
357 K, 4517.5 kPa, Liquid | 796.2
358 K, 4781.3 kPa, Liquid | 796.2
360 K, 1276.2 kPa, Gas | 49.9
360 K, 2101.2 kPa, Gas | 99.8
360 K, 5309.1 kPa, Liquid | 796.2
362 K, 5836.4 kPa, Liquid | 796.1
364 K, 2872 kPa, Fluid (supercritical or subcritical phases) | 699.8
364 K, 6364.7 kPa, Liquid | 796.1
366 K, 3226.1 kPa, Fluid (supercritical or subcritical phases) | 699.8
366 K, 6895.5 kPa, Liquid | 796
368 K, 3583.4 kPa, Fluid (supercritical or subcritical phases) | 699.7
370 K, 1329.2 kPa, Gas | 49.9
370 K, 2227.8 kPa, Gas | 99.8
370 K, 3943.7 kPa, Fluid (supercritical or subcritical phases) | 699.7
372 K, 4306.9 kPa, Fluid (supercritical or subcritical phases) | 699.7
374 K, 4672.5 kPa, Fluid (supercritical or subcritical phases) | 699.6
376 K, 5040.5 kPa, Fluid (supercritical or subcritical phases) | 699.6
378 K, 5410 kPa, Fluid (supercritical or subcritical phases) | 699.5
379 K, 3659.3 kPa, Gas | 408.6
380 K, 1381.9 kPa, Gas | 49.9
380 K, 2351.3 kPa, Gas | 99.8
380 K, 3350.9 kPa, Gas | 199.9
380 K, 3727.7 kPa, Gas | 408.6
380 K, 5781.1 kPa, Fluid (supercritical or subcritical phases) | 699.5
382 K, 6153.3 kPa, Fluid (supercritical or subcritical phases) | 699.5
384 K, 6527.3 kPa, Fluid (supercritical or subcritical phases) | 699.4
385 K, 3499.4 kPa, Gas | 199.9
385 K, 4070.4 kPa, Gas | 408.5
386 K, 6902.3 kPa, Fluid (supercritical or subcritical phases) | 699.4
390 K, 1433.6 kPa, Gas | 49.9
390 K, 2472.5 kPa, Gas | 99.7
390 K, 3645.5 kPa, Gas | 199.8
390 K, 4415.7 kPa, Gas | 408.4
395 K, 3789.8 kPa, Gas | 199.8
395 K, 4762.2 kPa, Gas | 408.3
400 K, 1484.4 kPa, Gas | 49.8
400 K, 2591.1 kPa, Gas | 99.7
400 K, 3931.9 kPa, Gas | 199.7
400 K, 5109.3 kPa, Gas | 408.2
405 K, 4073 kPa, Gas | 199.7
405 K, 5458.7 kPa, Gas | 408.1
410 K, 1534.9 kPa, Gas | 49.8
410 K, 2708 kPa, Gas | 99.6
410 K, 4212.5 kPa, Gas | 199.6
410 K, 5806.1 kPa, Gas | 407.9
415 K, 4350.8 kPa, Gas | 199.5
415 K, 6157.7 kPa, Gas | 407.7
420 K, 1584.7 kPa, Gas | 49.7
420 K, 2823 kPa, Gas | 99.5
420 K, 4487.8 kPa, Gas | 199.4
420 K, 6507.1 kPa, Gas | 407.5
425 K, 4623.8 kPa, Gas | 199.2
425 K, 6857.2 kPa, Gas | 407.2
430 K, 1633.5 kPa, Gas | 49.7
430 K, 2936 kPa, Gas | 99.3
430 K, 4758.7 kPa, Gas | 199.1

mass density
Conditions | Gas | Liquid
360.73 K | – | 723.7 kg/m3
366.5 K | 182.7 kg/m3 | –
369.78 K | 205.8 kg/m3 | –
369.83 K | – | 644 kg/m3
371.67 K | 231.2 kg/m3 | –
371.85 K | – | 616.3 kg/m3
374.16 K | – | 571.5 kg/m3
374.31 K | 255.3 kg/m3 | –
375.35 K | 287.6 kg/m3 | –
376.38 K | – | 508.8 kg/m3
376.41 K | 323.1 kg/m3 | –
376.87 K | – | 451.6 kg/m3
376.93 K | 408.8 kg/m3 and 414.2 kg/m3 | 414.2 kg/m3
